Holding throughout (assay type): binding
Assay [1] concerns the target T1, NR2E3 (Homo sapiens, UniProt Q9Y5X4, R311Q).
T1 construct: MBP-NR2E3 LBD R311Q variant
T1 sequence (Q9Y5X4 164-410 R311Q): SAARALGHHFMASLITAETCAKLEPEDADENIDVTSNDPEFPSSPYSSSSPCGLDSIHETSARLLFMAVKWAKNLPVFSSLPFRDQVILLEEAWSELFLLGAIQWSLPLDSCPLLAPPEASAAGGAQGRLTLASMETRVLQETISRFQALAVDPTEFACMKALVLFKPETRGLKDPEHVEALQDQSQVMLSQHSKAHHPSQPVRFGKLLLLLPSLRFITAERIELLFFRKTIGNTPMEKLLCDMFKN
In words: visible absorbance titration.

The target in a further assay is T2, zebrafish NR2E3 (Danio rerio, UniProt Q5U3F3).
T2 construct: MBP-DrNR2E3 LBD
T2 sequence (Q5U3F3 178-419 limits assumed): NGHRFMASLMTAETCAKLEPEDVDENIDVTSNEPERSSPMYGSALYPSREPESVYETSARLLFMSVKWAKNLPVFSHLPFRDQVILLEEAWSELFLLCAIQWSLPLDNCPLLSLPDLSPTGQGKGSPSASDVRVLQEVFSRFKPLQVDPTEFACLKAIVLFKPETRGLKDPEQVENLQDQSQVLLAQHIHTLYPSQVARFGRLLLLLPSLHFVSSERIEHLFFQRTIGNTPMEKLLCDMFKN
Put plainly: visible absorbance titration.

The target of assay [2] is T3, NR2E3 (Homo sapiens, UniProt Q9Y5X4).
T3 construct: MBP-NR2E3 LBD (amino acid residues 164–410 of 410 residue NR2E3)
T3 sequence (Q9Y5X4 164-410): T1 sequence (Q9Y5X4 164-410 R311Q) with Q148R
In words: visible absorbance titration; also gel filtration co-purification with LC-MS.

Residue numbers refer to the chain shown, from its start.

Regarding `C=CC1=C(C)/C(=C/C2=NC(=C\c3[nH]c(/C=C4\NC(=O)C(C)=C4C=C)c(C)c3CCC(=O)O)/C(CCC(=O)O)=C2C)NC1=O` [biliverdin], the dissociation constant (Kd) on NR2E3 [1] stood at 9 µM; on NR2E3 [2] it was 0.2 µM. Further, at zebrafish NR2E3, the visible absorbance titration entry is reported as “the spectrum of biliverdin showed changes similar to the one observed with human NR2E3^LBD”.

As usually defined, the Kd is the concentration at which binding is half-saturated.
